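Dose response: 5 concentrations. Exposure: 48 h. Format: 96-well plates. Endpoint: linear interpolation; highest concentration if not reached. GI50 is the concentration that inhibits growth by half. At the TGI there is no net growth.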
Experiments:
Assay in all cases: DTP human tumour cell line panel, 48 h
[1] = test system: KM12 colon
[2] = test system: DU-145 prostate
[3] = test system: SK-MEL-28 melanoma
[4] = test system: NCI/ADR-RES ovarian
[5] = test system: OVCAR-3 ovarian
[6] = test system: MOLT-4 leukemia
[7] = test system: MDA-MB-231 breast
[8] = test system: CCRF-CEM leukemia
[9] = test system: SR leukemia
[10] = test system: OVCAR-4 ovarian
[11] = test system: A549 NSCLC
[12] = test system: HCC-2998 colon
[13] = test system: SN12C renal
[14] = test system: OVCAR-5 ovarian
[15] = test system: NCI-H23 lung
[16] = test system: COLO 205 colon
[17] = test system: SF-295 CNS
[18] = test system: UACC-62 melanoma
[19] = test system: HCT-15 colon
[20] = test system: SK-OV-3 ovarian
[21] = test system: LOX IMVI melanoma
[22] = test system: NCI-H460 lung
[23] = test system: HS 578T breast
[24] = test system: CAKI-1 renal
[25] = test system: A498 renal
[26] = test system: 786-0 renal
[27] = test system: SF-539 CNS
[28] = test system: SW-620 colon
[29] = test system: RXF 393 renal
[30] = test system: MDA-MB-435
[31] = test system: U251 CNS
[32] = test system: IGROV1 ovarian
[33] = test system: MCF7 breast
[34] = test system: EKVX NSCLC
[35] = test system: HOP-62 NSCLC
[36] = test system: HOP-92 NSCLC
[37] = test system: K-562 leukemia
[38] = test system: ACHN renal
[39] = test system: SF-268 CNS
[40] = test system: PC-3 prostate
[41] = test system: MALME-3M melanoma
[42] = test system: UACC-257 melanoma
[43] = test system: OVCAR-8 ovarian
[44] = test system: M14 melanoma
[45] = test system: SNB-19 CNS
[46] = test system: SNB-75 CNS
[47] = test system: T-47D breast
[48] = test system: SK-MEL-5 melanoma
[49] = test system: NCI-H226 lung
[50] = test system: HCT-116 colon
[51] = test system: UO-31 renal
[52] = test system: RPMI-8226 leukemia
[53] = test system: HL-60(TB) leukemia
[54] = test system: TK-10 renal
[55] = test system: HT29 colon
[56] = test system: SK-MEL-2 melanoma
[57] = test system: NCI-H522 lung

Compound: CCCCCCCCCCCCC(NC(C)=O)(C(=O)OCC)C(=O)OCC
- GI50 [1]: 11.1 µM
- TGI [1]: 28.9 µM
- GI50 [2]: 15.1 µM
- TGI [2]: 28.6 µM
- GI50 [3]: 13.5 µM
- TGI [3]: 26.9 µM
- GI50 [4]: 10.3 µM
- TGI [4]: 23.7 µM
- GI50 [5]: 11.7 µM
- TGI [5]: 25.4 µM
- GI50 [6]: 18.2 µM
- TGI [6]: 62.4 µM
- GI50 [7]: 12.6 µM
- TGI [7]: 26.7 µM
- GI50 [8]: 16.8 µM
- TGI [8]: 41.6 µM
- GI50 [9]: 6.94 µM
- TGI [9]: 48.2 µM
- GI50 [10]: 10.4 µM
- TGI [10]: 22.2 µM
- GI50 [11]: 14.3 µM
- TGI [11]: 32.5 µM
- GI50 [12]: 12.5 µM
- TGI [12]: 26.2 µM
- GI50 [13]: 10.2 µM
- TGI [13]: 22 µM
- GI50 [14]: 13.7 µM
- TGI [14]: 27.3 µM
- GI50 [15]: 10.8 µM
- TGI [15]: 24.8 µM
- GI50 [16]: 12.8 µM
- TGI [16]: 26.3 µM
- GI50 [17]: 11.2 µM
- TGI [17]: 26.9 µM
- GI50 [18]: 4.88 µM
- TGI [18]: 19.6 µM
- GI50 [19]: 9.38 µM
- TGI [19]: 23 µM
- GI50 [20]: 12.6 µM
- TGI [20]: 25.7 µM
- GI50 [21]: 11.8 µM
- TGI [21]: 25.2 µM
- GI50 [22]: 7.65 µM
- TGI [22]: 24 µM
- GI50 [23]: 14 µM
- TGI [23]: 45.8 µM
- GI50 [24]: 10.6 µM
- TGI [24]: 27.4 µM
- GI50 [25]: 13.5 µM
- TGI [25]: 26.6 µM
- GI50 [26]: 14.9 µM
- TGI [26]: 29.3 µM
- GI50 [27]: 16 µM
- TGI [27]: 33.1 µM
- GI50 [28]: 13 µM
- TGI [28]: 26.9 µM
- GI50 [29]: 13.7 µM
- TGI [29]: 27 µM
- GI50 [30]: 12.6 µM
- TGI [30]: 31.7 µM
- GI50 [31]: 12.4 µM
- TGI [31]: 28.5 µM
- GI50 [32]: 12.6 µM
- TGI [32]: 37.2 µM
- GI50 [33]: 7.41 µM
- TGI [33]: 21.2 µM
- GI50 [34]: 6.99 µM
- TGI [34]: 26.1 µM
- GI50 [35]: 13.9 µM
- TGI [35]: 27.5 µM
- GI50 [36]: 12.2 µM
- TGI [36]: 25.4 µM
- GI50 [37]: 7.55 µM
- TGI [37]: > 100 µM
- GI50 [38]: 12.6 µM
- TGI [38]: 25.3 µM
- GI50 [39]: 13.4 µM
- TGI [39]: 28.5 µM
- GI50 [40]: 7.03 µM
- TGI [40]: 21.1 µM
- GI50 [41]: 12.5 µM
- TGI [41]: 29.1 µM
- GI50 [42]: 11.7 µM
- TGI [42]: 26.1 µM
- GI50 [43]: 12.7 µM
- TGI [43]: 32.3 µM
- GI50 [44]: 12.7 µM
- TGI [44]: 27.3 µM
- GI50 [45]: 12.8 µM
- TGI [45]: 25.6 µM
- GI50 [46]: 11.3 µM
- TGI [46]: 23.8 µM
- GI50 [47]: 5.43 µM
- TGI [47]: 20.7 µM
- GI50 [48]: 3.87 µM
- TGI [48]: 16 µM
- GI50 [49]: 12.5 µM
- TGI [49]: 27.2 µM
- GI50 [50]: 5.83 µM
- TGI [50]: 19.2 µM
- GI50 [51]: 7.39 µM
- TGI [51]: 27.5 µM
- GI50 [52]: 10.8 µM
- TGI [52]: 44.8 µM

Compound: CCCCCCCCCC[N+](C)(C)C
- GI50 [2]: 1.94 µM
- TGI [2]: 4.88 µM
- GI50 [3]: 3.07 µM
- TGI [3]: 12.2 µM
- GI50 [4]: 15.1 µM
- TGI [4]: 49.6 µM
- GI50 [5]: 1.68 µM
- TGI [5]: 5.4 µM
- GI50 [6]: 1.59 µM
- TGI [6]: 3.43 µM
- GI50 [53]: 0.874 µM
- TGI [53]: 2.59 µM
- GI50 [7]: 1.59 µM
- TGI [7]: 4.38 µM
- GI50 [8]: 0.739 µM
- TGI [8]: 2.32 µM
- GI50 [9]: 1.12 µM
- TGI [9]: 3.43 µM
- GI50 [10]: 2.2 µM
- TGI [10]: 14.5 µM
- GI50 [11]: 2.52 µM
- TGI [11]: 8.43 µM
- GI50 [12]: 1.58 µM
- TGI [12]: 3.53 µM
- GI50 [13]: 2.95 µM
- TGI [13]: 8.66 µM
- GI50 [14]: 1.05 µM
- TGI [14]: 3.89 µM
- GI50 [15]: 2 µM
- TGI [15]: 6.34 µM
- GI50 [16]: 1.28 µM
- TGI [16]: 2.59 µM
- GI50 [17]: 1.97 µM
- TGI [17]: 5.81 µM
- GI50 [18]: 1.69 µM
- TGI [18]: 4.59 µM
- GI50 [19]: 2.49 µM
- TGI [19]: 17.1 µM
- GI50 [20]: 2.57 µM
- TGI [20]: 13 µM
- GI50 [21]: 1.41 µM
- TGI [21]: 2.95 µM
- GI50 [22]: 1.73 µM
- TGI [22]: 3.84 µM
- GI50 [23]: 2.22 µM
- TGI [23]: 6.38 µM
- GI50 [24]: 2.52 µM
- TGI [24]: 15.3 µM
- GI50 [25]: 1.78 µM
- TGI [25]: 7.81 µM
- GI50 [27]: 2.17 µM
- TGI [27]: 5.9 µM
- GI50 [28]: 2.13 µM
- TGI [28]: 10.1 µM
- GI50 [30]: 1.75 µM
- TGI [30]: 4.29 µM
- GI50 [31]: 1.04 µM
- TGI [31]: 2.29 µM
- GI50 [32]: 1.66 µM
- TGI [32]: 3.2 µM
- GI50 [33]: 2.45 µM
- TGI [33]: 12.7 µM
- GI50 [54]: 1.42 µM
- TGI [54]: 3.27 µM
- GI50 [34]: 3.66 µM
- TGI [34]: 30.5 µM
- GI50 [35]: 1.18 µM
- TGI [35]: 3.07 µM
- GI50 [36]: 0.677 µM
- TGI [36]: 4.6 µM
- GI50 [37]: 1.82 µM
- TGI [37]: 7.82 µM
- GI50 [38]: 2.39 µM
- TGI [38]: 12.5 µM
- GI50 [39]: 1.98 µM
- TGI [39]: 5.77 µM
- GI50 [40]: 0.978 µM
- TGI [40]: 5.16 µM
- GI50 [41]: 2.25 µM
- TGI [41]: 8.96 µM
- GI50 [42]: 2.3 µM
- TGI [42]: 7.07 µM
- GI50 [43]: 1.83 µM
- TGI [43]: 5.53 µM
- GI50 [44]: 1.74 µM
- TGI [44]: 5.83 µM
- GI50 [46]: 1.26 µM
- TGI [46]: 3.69 µM
- GI50 [47]: 1.91 µM
- TGI [47]: 8.33 µM
- GI50 [48]: 1.73 µM
- TGI [48]: 3.26 µM
- GI50 [49]: 2.37 µM
- TGI [49]: 8.97 µM
- GI50 [55]: 0.505 µM
- TGI [55]: 2.17 µM
- GI50 [56]: 2.41 µM
- TGI [56]: 6.61 µM
- GI50 [57]: 1.7 µM
- TGI [57]: 5.11 µM
- GI50 [50]: 2.34 µM
- TGI [50]: 10.5 µM
- GI50 [51]: 4.91 µM
- TGI [51]: 20 µM
- GI50 [52]: 0.604 µM
- TGI [52]: 2.9 µM

Reference: PubChem BioAssay (NCI)
